Experimental data as given in patent US7196110B2, “N-substituted tricyclic 3-aminopyrazoles as inhibitors for the treatment of cell proliferative disorders” (Janssen Phamaceutica N.V., priority 2002, dated 2007).
pIC50: −log10 of the molar value. Read-outs that look alike come from different tables or passages of the source.

Target: T1, PDGF-receptor beta enzyme comprising the tyrosine kinase domain (Homo sapiens, UniProt P09619)
T1 construct: from amino acid 545 to 1106 of GenBank Access NO: AAA36427
T1 sequence (P09619 545-1106): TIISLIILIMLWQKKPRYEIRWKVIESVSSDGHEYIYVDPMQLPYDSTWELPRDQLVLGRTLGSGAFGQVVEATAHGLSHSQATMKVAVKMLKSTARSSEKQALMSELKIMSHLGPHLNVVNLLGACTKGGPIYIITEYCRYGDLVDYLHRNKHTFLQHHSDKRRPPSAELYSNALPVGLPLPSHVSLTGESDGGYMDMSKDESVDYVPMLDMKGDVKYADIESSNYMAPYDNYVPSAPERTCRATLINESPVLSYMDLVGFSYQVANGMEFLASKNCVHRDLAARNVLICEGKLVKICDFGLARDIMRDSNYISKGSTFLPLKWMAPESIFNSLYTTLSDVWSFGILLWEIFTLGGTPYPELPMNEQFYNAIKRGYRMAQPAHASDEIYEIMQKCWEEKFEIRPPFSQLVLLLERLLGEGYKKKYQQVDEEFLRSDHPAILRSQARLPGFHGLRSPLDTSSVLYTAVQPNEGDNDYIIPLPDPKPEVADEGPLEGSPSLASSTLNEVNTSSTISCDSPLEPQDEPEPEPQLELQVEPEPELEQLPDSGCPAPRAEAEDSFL
Assay: Inhibition of PDGF-receptor kinase activity (cell-free, PLC1 peptide, 33P Flashplate)
Assay type: biochemical
Conditions: for inhibition at 10 µM: read-out: Percent Inhibition @ 10 uM; for pIC50: read-out: IC50; for IC50: read-out: IC50 (μM) on PDGF-R kinase activity
Procedure, shortened: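 Recombinant kinase domain (aa 545–1106) phosphorylated a biotinylated PLC1 peptide with 5 μM ATP plus 33P-γ-ATP, in Tris pH 8, MgCl2, Na3VO4 and 1 mM DTT, for 60 min at 30 °C. Retained 33P was counted after washing. IC50 is the concentration halving activity versus no-inhibitor reactions.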

[1] = PDGF-R kinase activity, compound at 10 uM

Row | Compound | inhibition at 10 µM [1] [%] | pIC50 (PDGF-R kinase activity) | IC50 [µM] | Percent Inhibition @ 10 uM (PDGF-R kinase activity, compound at 10 uM, 10 µM) [%]
1 | Fc1ccc2c(c1)Cc1c-2n[nH]c1Nc1ccc2[nH]ccc2c1 [Compound 290, (6-Fluoro-2,4-dihydro-indeno[1,2-c]pyrazol-3-yl)-(1H-indol-5-yl)-amine] | 87.5 | 7.21 | – | –
2 | COc1cc2c(cc1OC)C(C)c1c-2n[nH]c1Nc1cccc(Cl)c1 (stereo not drawn) [Compound 257, (3-Chloro-phenyl)-(6,7-dimethoxy-4-methyl-2,4-dihydro-indeno[1,2-c]pyrazol-3-yl)-amine] | 35 | – | – | –
3 | COc1cc2c(cc1OC)-c1n[nH]c(Nc3ccc(F)c(Cl)c3)c1C2 [Compound 53, (3-Chloro-4-fluoro-phenyl)-(6,7-dimethoxy-2,4-dihydro-indeno[1,2-c]pyrazol-3-yl)-amine] | 94 | 7.23 | – | –
4 | COc1cccc(Nc2[nH]nc3c2C(C)c2cc(OC(C)C)c(OC(C)C)cc2-3)c1 (stereo not drawn) [Compound 355, (6,7-Diisopropoxy-4-methyl-2,4-dihydro-indeno[1,2-c]pyrazol-3-yl)-(3-methoxy-phenyl)-amine] | 85 | 5.99 | – | –
5 | COc1cc2c(cc1OC)-c1n[nH]c(NCc3ccc(F)cc3F)c1C2 [Compound 328, (2,4-Difluoro-benzyl)-(6,7-dimethoxy-2,4-dihydro-indeno[1,2-c]pyrazol-3-yl)-amine] | 78.5 | 6.16 | – | –
6 | COc1ccc(Nc2[nH]nc3c2Cc2ccc(OC)cc2-3)cc1 [Compound 171, (7-Methoxy-2,4-dihydro-indeno[1,2-c]pyrazol-3-yl)-(4-methoxy-phenyl)-amine] | 92.5 | 6.91 | – | –
7 | COc1cc2c(cc1OC)-c1c(c(Nc3cccc(F)c3)nn1C(=O)NCCNC(=O)c1ccccc1)C2 [Compound 532, 3-(3-Fluoro-phenylamino)-6,7-dimethoxy-4H-indeno[1,2-c]pyrazole-1-carboxylic acid (2-benzoylamino-ethyl)-amide] | 42 | – | – | –
8 | COCCCOc1cc2c(cc1OCCCOC)-c1n[nH]c(Nc3cccc(Cl)c3)c1C2 [Compound 285, [6,7-Bis-(3-methoxy-propoxy)-2,4-dihydroindeno[1,2-c]pyrazol-3-yl]-(3-chloro-phenyl)-amine] | 18.5 | 8.56 | – | –
9 | COC(=O)CCC(=O)n1nc(Nc2cccc(F)c2)c2c1-c1cc(OC)c(OC)cc1C2 [Compound 428, 4-[3-(3-Fluoro-phenylamino)-6,7-dimethoxy-4H-indeno[1,2-c]pyrazol-1-yl]-4-oxo-butyric acid methyl ester] | 85.5 | 6.36 | – | –
10 | COc1cc2c(c3nc(C)oc13)Cc1c(NCc3ccccc3F)n[nH]c1-2 [Compound 574, (2-Fluoro-benzyl)-(4-methoxy-2-methyl-6,9-dihydro-3-oxa-1,6,7-triaza-cyclopenta[b]-as-indacen-8-yl)-amine] | 99 | – | 0.163 | –
11 | COc1ccc2c(c1)Cc1c-2n[nH]c1Nc1ccc(F)cc1 [Compound 82, (4-Fluoro-phenyl)-(6-methoxy-2,4-dihydro-indeno[1,2-c]pyrazol-3-yl)-amine] | 79 | 6.56 | – | –
12 | COc1cc2c(cc1OC)-c1n[nH]c(Nc3ncc(Br)cc3C)c1C2 [Compound 576, (5-Bromo-3-methyl-pyridin-2-yl)-(6,7-dimethoxy-2,4-dihydro-indeno[1,2-c]pyrazol-3-yl)-amine] | 18 | – | 33.3 | –
13 | Fc1ccc2c(c1)Cc1c-2n[nH]c1NCc1cc(Cl)cc(Cl)c1 [Compound 304, (3,5-Dichloro-benzyl)-(6-fluoro-2,4-dihydro-indeno[1,2-c]pyrazol-3-yl)-amine] | 38 | 5.46 | – | –
14 | CCOc1cc2c(cc1OCC)C(C)c1c-2n[nH]c1Nc1ccc(F)cc1 (stereo not drawn) [Compound 349, (6,7-Diethoxy-4-methyl-2,4-dihydro-indeno[1,2-c]pyrazol-3-yl)-(4-fluoro-phenyl)-amine] | 78 | 7.09 | – | –
15 | COc1cc2c(cc1OC)C(C)c1c-2n[nH]c1Nc1cccc(SC)c1 (stereo not drawn) [Compound 255, (6,7-Dimethoxy-4-methyl-2,4-dihydro-indeno[1,2-c]pyrazol-3-yl)-(3-methylsulfanyl-phenyl)-amine] | 90 | 6.79 | – | –
16 | CCOc1cccc(Nc2[nH]nc3c2C(CC)c2cc(OC)c(OC)cc2-3)c1 (single isomer, unassigned) [Compound 556, (3-Ethoxy-phenyl)-(4-ethyl-6,7-dimethoxy-2,4-dihydro-indeno[1,2-c]pyrazol-3-yl)-amine] | – | 7.98 | – | 98
17 | COc1cc2c(cc1OC)-c1n[nH]c(Nc3cccc(C#N)c3)c1C2 [Compound 61, 3-(6,7-Dimethoxy-2,4-dihydro-indeno[1,2-c]pyrazol-3-ylamino)-benzonitrile] | 71 | 6.86 | – | –

Row | Compound | inhibition at 10 µM [1] [%] | pIC50 (PDGF-R kinase activity) | IC50 [µM] | Percent Inhibition @ 10 uM (PDGF-R kinase activity, compound at 10 uM, 10 µM) [%]
18 | COc1cc2c(cc1OC)-c1n[nH]c(Nc3cc(C(C)(C)C)cc(C(C)(C)C)c3)c1C2 [Compound 279, (3,5-Di-tert-butyl-phenyl)-(6,7-dimethoxy-2,4-dihydro-indeno[1,2-c]pyrazol-3-yl)-amine] | 19.5 | 3.69 | – | –
19 | COc1ccc(C(=O)n2nc(Nc3cccc(F)c3)c3c2-c2cc(OC)c(OC)cc2C3)cc1 [Compound 458, [3-(3-Fluoro-phenylamino)-6,7-dimethoxy-4H-indeno[1,2-c]pyrazol-1-yl]-(4-methoxy-phenyl)-methanone] | 70.5 | 5.16 | – | –
20 | COc1cc2c(cc1OC)-c1nn([C@@H]3O[C@H](C(=O)O)[C@@H](O)[C@H](O)[C@H]3O)c(Nc3cccc(F)c3)c1C2 [Compound 529, 6-[3-(3-Fluoro-phenylamino)-6,7-dimethoxy-4H-indeno[1,2-c]pyrazol-2-yl]-3,4,5-trihydroxy-tetrahydro-pyran-2-carboxylic acid] | 44 | 4.97 | – | –
21 | COc1cccc(Nc2[nH]nc3c2Cc2cc(OCCCN4CCN(C)CC4)c(OC)cc2-3)c1 [Compound 215, {7-Methoxy-6-[3-(4-methyl-piperazin-1-yl)-propoxy]-2,4-dihydro-indeno[1,2-c]pyrazol-3-yl}-(3-methoxy-phenyl)-amine] | 99 | 8.24 | – | –
22 | OCCCOc1cccc2c1Cc1c-2n[nH]c1NCc1c(F)cccc1F [Compound 443, 3-[3-(2,6-Difluoro-benzylamino)-2,4-dihydro-indeno[1,2-c]pyrazol-5-yloxy]-propan-1-ol] | 89.5 | 7.01 | – | –
23 | Fc1ccc2c(c1)Cc1c-2n[nH]c1Nc1ccc(OC(F)(F)F)cc1 [Compound 238, (6-Fluoro-2,4-dihydro-indeno[1,2-c]pyrazol-3-yl)-(4-trifluoromethoxy-phenyl)-amine] | 87 | 6.38 | – | –
24 | CCC1c2cc(OC)c(OC)cc2-c2c1c(Nc1cccc(Br)c1)nn2C(=O)COC (stereo not drawn) [Compound 514, 1-[3-(3-Bromo-phenylamino)-4-ethyl-6,7-dimethoxy-4H-indeno[1,2-c]pyrazol-1-yl]-2-methoxy-ethanone] | 85 | 6.62 | – | –
25 | CN(C)CCCOc1ccc2c(c1)Cc1c-2n[nH]c1Nc1ccc(F)cc1 [Compound 159, [6-(3-Dimethylamino-propoxy)-2,4-dihydro-indeno[1,2-c]pyrazol-3-yl]-(4-fluoro-phenyl)-amine] | 92.5 | 7.00 | – | –
26 | CNC(=O)CCCC(=O)n1nc(Nc2cccc(F)c2)c2c1-c1cc(OC)c(OC)cc1C2 [Compound 506, 5-[3-(3-Fluoro-phenylamino)-6,7-dimethoxy-4H-indeno[1,2-c]pyrazol-1-yl]-5-oxo-pentanoic acid methylamide] | 97 | 7.53 | – | –
27 | COc1cccc(Nc2[nH]nc3c2Cc2cc(N4CCN(C)CC4)ccc2-3)c1 [Compound 123, (3-Methoxy-phenyl)-[6-(4-methyl-piperazin-1-yl)-2,4-dihydro-indeno[1,2-c]pyrazol-3-yl]-amine] | 87 | 6.64 | – | –
28 | COc1cc2c(cc1OC)-c1n[nH]c(NCc3cccnc3)c1C2 [Compound 564, (6,7-Dimethoxy-2,4-dihydro-indeno[1,2-c]pyrazol-3-yl)-pyridin-3-ylmethyl-amine] | 99.5 | 6.05 | – | –
29 | COc1cc2c(cc1OC)-c1c(c(Nc3cccc(F)c3)nn1S(=O)(=O)N(C)C)C2 [Compound 447, 3-(3-Fluoro-phenylamino)-6,7-dimethoxy-4H-indeno[1,2-c]pyrazole-1-sulfonic acid dimethylamide] | 7 | – | – | –
30 | COC(=O)C(NC(=O)n1nc(Nc2cccc(F)c2)c2c1-c1cc(OC)c(OC)cc1C2)C(C)C (stereo not drawn) [Compound 530, 2-{[3-(3-Fluoro-phenylamino)-6,7-dimethoxy-4H-indeno[1,2-c]pyrazole-1-carbonyl]-amino}-3-methyl-butyric acid methyl ester] | 71.5 | 5.38 | – | –
31 | COc1cc2c(cc1OC)-c1c(c(Nc3cccc(F)c3)nn1C(=O)NCCNCCO)C2 [Compound 523, 3-(3-Fluoro-phenylamino)-6,7-dimethoxy-4H-indeno[1,2-c]pyrazole-1-carboxylic acid [2-(2-hydroxy-ethylamino)-ethyl]-amide] | 98.5 | 6.72 | – | –
32 | CC(C)(C)c1cc(Nc2[nH]nc3c2Cc2cc(F)ccc2-3)cc(C(C)(C)C)c1 [Compound 303, (3,5-Di-tert-butyl-phenyl)-(6-fluoro-2,4-dihydro-indeno[1,2-c]pyrazol-3-yl)-amine] | 50 | 5.03 | – | –
33 | COc1cc2c(cc1OCC(O)CO)Cc1c-2n[nH]c1NCc1c(Cl)cccc1Cl (stereo not drawn) [Compound 450, 3-[3-(2,6-Dichloro-benzylamino)-7-methoxy-2,4-dihydro-indeno[1,2-c]pyrazol-6-yloxy]-propane-1,2-diol] | 100 | 9.03 | – | –
